Experimental findings from patent publication US10064831B2, “Active substances and cosmetic or dermatological preparations containing said active substances for the care of the skin of patients of diabetes mellitus” (BEIERSDORF AG, priority 2015, dated 2018) are described below.

The assay deals with glyoxalases. The assay can be described thus: induction of glyoxalase activity in skin cells. The assay is classed as cell-based. To be noted: no method or numbers given.

As to `C=CC(C)(C)c1cc(/C=C/C(=O)c2ccc(O)cc2)c(OC)cc1O` [licochalcone A], the “activity of glyoxalases induced in skin cells” value is on record as “enhanced activity of glyoxalases”.
